In PubChem BioAssay (NCI):
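Following 48 hours of exposure in 96-well plates, responses at five concentrations were used to interpolate endpoints linearly. GI50 = concentration required for 50% inhibition of growth. The concentration for full growth arrest is given as TGI.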

Columns and labels:
Experiment in all cases: NCI tumour cell line growth inhibition, 48 h
HCT-15 colon = system: HCT-15 colon
HT29 colon = system: HT29 colon
K-562 leukemia = system: K-562 leukemia
MALME-3M melanoma = system: MALME-3M melanoma
OVCAR-3 ovarian = system: OVCAR-3 ovarian
RXF 393 renal = system: RXF 393 renal
SN12C renal = system: SN12C renal
UACC-62 melanoma = system: UACC-62 melanoma
HOP-92 NSCLC = system: HOP-92 NSCLC

Row | SMILES | TGI (HCT-15 colon) [µM] | TGI (HT29 colon) [µM] | TGI (K-562 leukemia) [µM] | TGI (MALME-3M melanoma) [µM] | TGI (OVCAR-3 ovarian) [µM] | TGI (RXF 393 renal) [µM] | TGI (SN12C renal) [µM] | TGI (UACC-62 melanoma) [µM] | TGI (HOP-92 NSCLC) [µM] | GI50 (HCT-15 colon) [µM] | GI50 (HOP-92 NSCLC) [µM] | GI50 (HT29 colon) [µM] | GI50 (K-562 leukemia) [µM] | GI50 (MALME-3M melanoma) [µM] | GI50 (OVCAR-3 ovarian) [µM] | GI50 (SN12C renal) [µM] | GI50 (UACC-62 melanoma) [µM] | GI50 (RXF 393 renal) [µM]
1 | CN(C)CC/C(=N\Nc1ccc(Cl)c(Cl)c1)c1ccccc1 | 4.18 | 4.05 | 4.68 | 13.3 | 6.45 | 8.47 | 5.26 | 3.88 |  |  |  |  |  |  |  |  |  | 
2 | COc1cc(/C=C/c2ccc(OC(C)=O)cc2)cc(OC)c1OC | > 100 | > 100 | > 100 | 97.1 | 68.2 | 39.2 | > 100 | 70.6 | 80.2 |  |  |  |  |  |  |  |  | 
3 | COc1ccc2nc(NC(=O)C(=O)C(C(=O)c3ccccc3-c3ccccc3)C3OC(=O)c4ccccc43)sc2c1 (stereo unspecified) |  | > 100 | > 100 | 27.6 | 48.2 | 23.8 |  | 34.3 | 35.2 |  |  |  |  |  |  |  |  | 
4 | NC(=S)NNC(=O)CCC(=O)Nc1ccc(Cl)cc1Cl | > 100 | > 100 | > 100 | > 100 | > 100 | > 100 | > 100 | > 100 | > 100 |  |  |  |  |  |  |  |  | 
5 | Cc1ccccc1-c1c(N)nc(N)nc1C(=O)Nc1nccs1 | > 100 | > 100 | > 100 | > 100 | > 100 | > 100 | > 100 | > 100 | > 100 |  |  |  |  |  |  |  |  | 
6 | CCC[CH2][Ge]([CH2]CCC)([CH2]CCC)[O]C(=O)C(O)c1ccccc1 (stereo unspecified) | 14.2 | 20.8 | 19.9 | 18 | 18.4 | 1.06 | 23.4 | 18.1 | 15.8 | 1.78 | 0.49 | 3.32 | 0.443 | 1.45 | 1.35 | 4.58 | 4.03 | 
7 | CCc1ccc(Nc2cc(=O)[nH]c(=S)n2C)cc1 | > 100 | > 100 | > 100 | > 100 | > 100 | > 100 | > 100 | > 100 | > 100 |  |  |  |  |  |  |  |  | 
8 | CCOC(=O)N1N=NC2C3OC(C[C@@]3(C#N)OC(C)=O)[C@H]21 (stereo partly specified) | > 100 | > 100 | > 100 | > 100 | > 100 | > 100 | > 100 | > 100 | > 100 |  |  |  |  |  |  |  |  | 
9 | CCCCCCCCCC1C(C)c2c([nH]c3ccccc23)C2C(=O)N(c3ccccc3)C(=O)C21 (stereo unspecified) | 23 | 22.7 | 15.9 | > 100 | 10.8 | 5.55 |  | 33.1 |  |  |  |  |  |  |  |  |  | 
10 | CCC[CH2][Sn]([CH2]CCC)([O]C(=O)c1cc(OC)c(OC)cc1OC)[O]C(=O)c1cc(OC)c(OC)cc1OC | 2.92 | 4.67 | 2.97 | 2.08 | 2.86 | 1.47 | 3.29 | 2.37 |  | 1.26 |  | 1.96 | 0.324 | 0.793 | 1.3 | 1.52 | 1.12 | 0.327
11 | Cc1ccc(NC(=O)CC/C(CC(=O)c2ccc(F)cc2)=N\NC(=O)C(=O)NN)cc1C | > 100 | > 100 | > 100 | > 100 | > 100 | > 100 | > 100 | > 100 | > 100 |  |  |  |  |  |  |  |  | 
12 | COc1cc(C(=O)C/C(CCC(=O)Nc2ccc(Cl)cc2Cl)=N/NC(=O)C(N)=O)ccc1O | > 100 | > 100 | > 100 | > 100 | > 100 |  | > 100 | > 100 | > 100 |  |  |  |  |  |  |  |  | 
13 | ICCC(c1ccccc1)(c1ccccc1)c1ccccc1 | 15.5 | 9.07 | 4.93 | 3.6 | 15 | 22.8 | 27.2 | 5.74 | 18.2 | 3.56 | 2.7 | 2.34 | 1.67 | 1.9 | 3.85 | 12.2 | 2.46 | 8.9
14 | O=C(OCC1OC(OC(=O)c2cc(O)c(O)c(OC(=O)c3cc(O)c(O)c(O)c3)c2)C(OC(=O)c2cc(O)c(O)c(OC(=O)c3cc(O)c(O)c(O)c3)c2)C(OC(=O)c2cc(O)c(O)c(OC(=O)c3cc(O)c(O)c(O)c3)c2)C1OC(=O)c1cc(O)c(O)c(OC(=O)c2cc(O)c(O)c(O)c2)c1)c1cc(O)c(O)c(OC(=O)c2cc(O)c(O)c(O)c2)c1 (stereo unspecified) | > 50 | > 50 | > 50 |  | 31.2 | > 50 | 29.8 | > 50 | > 50 | 9.73 | 43.9 | 26.4 | 25.3 |  | 9.99 | 11.4 | 14.3 | 30.3
